These results are taken from US20240174727A1, “LONG-ACTING NATRIURETIC PEPTIDES AND USES THEREOF” (Eli Lilly and Company, priority 2022, published 2024).

Where two headings read alike, the source gives them in different places. Numbered stars: 1 amine (or outer) side, 2 acyl side, 3 side chain; on linkers, the order of the positions; unused ones are H or OH. Bridge positions count the residues as written; N and C are the ends. Square brackets hold non-standard residues; d marks the D form. Peptide text beside a SMILES is read from it. * marks the point of attachment. PEG24 = NCCOCCOCCOCCOCCOCCOCCOCCOCCOCCOCCOCCOCCOCCOCCOCCOCCOCCOCCOCCOCCOCCOCCOCCOCCC(=O)O; C20 diacid = O=C(O)CCCCCCCCCCCCCCCCCCC(=O)*; γGlu = O=C(O)[C@H](CCC(=O)[*:2])N[*:1]; 4Pal = N[C@@H](Cc1ccncc1)C(=O)O; Dap = NC[C@H](N)C(=O)O; CH2 = C([*:1])[*:2]; βAla = NCCC(=O)O

In this assay the target is T1, rat NPRA (Rattus norvegicus, UniProt P18910).
T1 construct: Full-Length cDNA Cloning and Generation of Cell Lines Overexpressing Natriuretic Peptide Receptors (NPRs); expressed in transfected cells; host or cells: Jump-in T-Rex HEK293 cells, pJTI R4 CMV-TO MCS pA vector, tetracycline induction
T1 sequence (P18910 29-1057): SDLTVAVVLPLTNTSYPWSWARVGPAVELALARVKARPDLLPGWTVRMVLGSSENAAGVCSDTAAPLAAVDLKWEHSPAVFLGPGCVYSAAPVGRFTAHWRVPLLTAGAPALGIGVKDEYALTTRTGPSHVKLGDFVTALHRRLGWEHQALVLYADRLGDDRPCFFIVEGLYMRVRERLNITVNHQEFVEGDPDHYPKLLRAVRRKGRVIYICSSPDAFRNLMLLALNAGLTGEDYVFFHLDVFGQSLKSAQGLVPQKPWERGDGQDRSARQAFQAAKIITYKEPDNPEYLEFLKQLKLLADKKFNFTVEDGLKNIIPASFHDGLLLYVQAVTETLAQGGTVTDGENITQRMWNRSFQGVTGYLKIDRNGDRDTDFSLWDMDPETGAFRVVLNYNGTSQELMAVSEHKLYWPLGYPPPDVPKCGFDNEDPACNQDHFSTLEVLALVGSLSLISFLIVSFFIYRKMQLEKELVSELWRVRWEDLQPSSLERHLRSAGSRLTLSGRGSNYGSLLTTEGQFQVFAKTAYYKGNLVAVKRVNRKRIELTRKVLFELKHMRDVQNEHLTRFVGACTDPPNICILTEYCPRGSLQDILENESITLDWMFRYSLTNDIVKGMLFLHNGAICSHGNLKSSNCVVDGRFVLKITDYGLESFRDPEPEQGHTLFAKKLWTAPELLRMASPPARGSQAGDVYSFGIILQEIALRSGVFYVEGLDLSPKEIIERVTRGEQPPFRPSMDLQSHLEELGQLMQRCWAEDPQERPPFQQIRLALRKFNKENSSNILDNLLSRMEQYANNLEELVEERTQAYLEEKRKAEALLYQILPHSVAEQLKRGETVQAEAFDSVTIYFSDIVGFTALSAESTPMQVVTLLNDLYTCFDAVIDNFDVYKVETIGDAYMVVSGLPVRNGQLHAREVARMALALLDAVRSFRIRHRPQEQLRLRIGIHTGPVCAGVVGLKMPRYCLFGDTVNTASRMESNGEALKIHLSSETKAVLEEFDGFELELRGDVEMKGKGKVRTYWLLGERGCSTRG
In words: Rat NPRA cGMP activity assay (HTRF) in HEK293 cells overexpressing NPRA. It counts as cell-based. An outline of the steps: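 Tetracycline-induced (300 ng/mL, 48 h) T-Rex HEK293 cells expressing NPRA, 4000 cells/well, treated 40 min at room temperature with polypeptide (8 points, 10 μM to 1 pM) in HBSS/HEPES buffer with 0.5 mM IBMX, pH 7.4. cGMP by HTRF, normalised to 100 nM amidated rat ANP and buffer.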
Background: TR-FRET usually uses a lanthanide donor and a delayed reading to cut background.

Where [1] appears, read: cGMP Assay (EC50, pM) w/Casein rNPRA, assay buffer with 0.1% casein.
The mark [2] stands for this setting: cGMP Assay (EC50, pM) w/BSA rNPRA, assay buffer with 0.1% BSA.
Where [3] appears, read: assay buffer with 0.1% BSA, read-out: cGMP Assay (EC50, pM) w/BSA rNPRA.
Where [4] appears, read: assay buffer with 0.1% casein, read-out: cGMP Assay (EC50, pM) w/Casein rNPRA.

Consider “{C20 diacid-γGlu}-EKEKEKGS[4Pal]RRSSCFGGRIGRIGHQSGLGCPSFRHGGPSSGAPPPS-NH2 (disulfide 14-30) [Example 29]”, for which, under setting [1], the EC50 is 16800 pM.

In turn, “{C20 diacid-γGlu}-EKEKEKG[PEG24]S[4Pal]RRSSCFGGRIDRIGHQSGLGCPSFRHGGPSSGAPPPS-NH2 (linker 15-31 via CH2) [Example 61]” came in with an EC50 under setting [2] of 463000 pM.

Consider `CC[C@H](C)[C@@H]1NC(=O)[C@H](CCCNC(=N)N)NC(=O)[C@H](CC(=O)O)NC(=O)[C@H]([C@@H](C)CC)NC(=O)[C@H](CCCNC(=N)N)NC(=O)[C@H](CCCCN)NC(=O)CNC(=O)[C@H](Cc2ccccc2)NC(=O)[C@@H](NC(=O)[C@H](CO)NC(=O)[C@H](CO)NC(=O)[C@H](CCCNC(=N)N)NC(=O)CCNC(=O)[C@H](CCCCN)NC(=O)[C@H](CCC(=O)O)NC(=O)CCOCCOCCOCCOCCOCCOCCOCCOCCOCCOCCOCCOCCOCCOCCOCCOCCOCCOCCOCCOCCOCCOCCOCCOCCNC(=O)CNC(=O)[C@H](CCCCN)NC(=O)[C@H](CCC(=O)O)NC(=O)[C@H](CCCCN)NC(=O)[C@H](CCC(=O)O)NC(=O)[C@H](CCCCN)NC(=O)[C@H](CCC(=O)O)NC(=O)CC[C@H](NC(=O)CCCCCCCCCCCCCCCCCCC(=O)O)C(=O)O)CSCSC[C@@H](C(=O)N2CCC[C@H]2C(=O)N[C@@H](CO)C(=O)N[C@@H](Cc2ccccc2)C(=O)N[C@@H](CCCNC(=N)N)C(=O)N[C@@H](Cc2c[nH]cn2)C(=O)NCC(=O)NCC(=O)N2CCC[C@H]2C(N)=O)NC(=O)CNC(=O)[C@H](CC(C)C)NC(=O)CNC(=O)[C@H](CO)NC(=O)[C@H](CCC(N)=O)NC(=O)[C@H](Cc2c[nH]cn2)NC(=O)CNC1=O` [Example 130] ({C20 diacid-γGlu}-EKEKEKG[PEG24]EK[βAla]RSSCFGKRIDRIGHQSGLGCPSFRHGGP-NH2; linker 15-31 via CH2), for which the EC50 came out at 197000 pM under setting [3] and 9170 pM under setting [4].

On to `CC[C@H](C)[C@@H]1NC(=O)[C@H](CCCNC(=N)N)NC(=O)[C@H](CC(=O)O)NC(=O)[C@H]([C@@H](C)CC)NC(=O)[C@H](CCCNC(=N)N)NC(=O)CNC(=O)CNC(=O)[C@H](Cc2ccccc2)NC(=O)[C@@H](NC(=O)[C@H](CO)NC(=O)[C@H](CO)NC(=O)[C@H](CCCNC(=N)N)NC(=O)CCNC(=O)[C@H](CCC(=O)O)NC(=O)[C@H](CCCCN)NC(=O)CNC(=O)[C@H](CCCCN)NC(=O)[C@H](CCC(=O)O)NC(=O)[C@H](CCCCN)NC(=O)[C@H](CCC(=O)O)NC(=O)[C@H](CCCCN)NC(=O)[C@H](CCC(=O)O)NC(=O)CC[C@H](NC(=O)CCCCCCCCCCCCCCCCCCC(=O)O)C(=O)O)CSCSC[C@@H](C(=O)N2CCC[C@H]2C(=O)N[C@@H](CO)C(=O)N[C@@H](Cc2ccccc2)C(=O)N[C@@H](CCCNC(=N)N)C(=O)N[C@@H](Cc2c[nH]cn2)C(=O)NCC(=O)NCC(=O)N2CCC[C@H]2C(=O)N[C@@H](CO)C(=O)N[C@@H](CO)C(=O)NCC(=O)N[C@@H](C)C(=O)N2CCC[C@H]2C(=O)N2CCC[C@H]2C(=O)N2CCC[C@H]2C(=O)N[C@@H](CO)C(N)=O)NC(=O)CNC(=O)[C@H](CC(C)C)NC(=O)CNC(=O)[C@H](CO)NC(=O)[C@H](Cc2ccc(O)cc2)NC(=O)[C@H](Cc2c[nH]cn2)NC(=O)CNC1=O` [Example 58], for which, under setting [2], the EC50 came out at 1.38e+06 pM.

For the compound “{C20 diacid-γGlu}-EKEKEKGEKPRSSCFG[Dap]RIDRIGHYSGLGCPSFRHGSPSSGAPPPS-NH2 (linker 14-30 via CH2) [Example 136]”, the EC50 reads like this: under setting [3], 2.43e+06 pM; under setting [4], 32900 pM.

Turning to `CC[C@H](C)[C@@H]1NC(=O)[C@H](CCCNC(=N)N)NC(=O)[C@H](CC(=O)O)NC(=O)[C@H]([C@@H](C)CC)NC(=O)[C@H](CCCNC(=N)N)NC(=O)CNC(=O)CNC(=O)[C@H](Cc2ccccc2)NC(=O)[C@@H](NC(=O)[C@H](CO)NC(=O)[C@H](CO)NC(=O)[C@H](CCCNC(=N)N)NC(=O)[C@H](CCCNC(=N)N)NC(=O)[C@H](Cc2ccncc2)NC(=O)[C@H](CO)NC(=O)COCCOCCNC(=O)COCCOCCNC(=O)COCCOCCNC(=O)COCCOCCNC(=O)COCCOCCNC(=O)COCCOCCNC(=O)CNC(=O)[C@H](CCCCN)NC(=O)[C@H](CCC(=O)O)NC(=O)[C@H](CCCCN)NC(=O)[C@H](CCC(=O)O)NC(=O)[C@H](CCCCN)NC(=O)[C@H](CCC(=O)O)NC(=O)CC[C@H](NC(=O)CCCCCCCCCCCCCCCCCCC(=O)O)C(=O)O)CSCSC[C@@H](C(=O)N2CCC[C@H]2C(=O)N[C@@H](CO)C(=O)N[C@@H](Cc2ccccc2)C(=O)N[C@@H](CCCNC(=N)N)C(=O)N[C@@H](Cc2c[nH]cn2)C(=O)NCC(=O)NCC(=O)N[C@@H](CCCCN)C(=O)N[C@@H](CO)C(=O)N[C@@H](CO)C(=O)NCC(=O)N[C@@H](C)C(=O)N2CCC[C@H]2C(=O)N2CCC[C@H]2C(=O)N2CCC[C@H]2C(=O)N[C@@H](CO)C(N)=O)NC(=O)CNC(=O)[C@H](CC(C)C)NC(=O)CNC(=O)[C@H](CO)NC(=O)[C@H](CCC(N)=O)NC(=O)[C@H](Cc2c[nH]cn2)NC(=O)CNC1=O` [Example 86], under setting [4], the EC50 was 17900 pM.

Consider `CC[C@H](C)[C@@H]1NC(=O)[C@H](CCCNC(=N)N)NC(=O)[C@H](CC(=O)O)NC(=O)[C@H]([C@@H](C)CC)NC(=O)[C@H](CCCNC(=N)N)NC(=O)CNC(=O)CNC(=O)[C@H](Cc2ccccc2)NC(=O)[C@@H](NC(=O)[C@H](CO)NC(=O)[C@H](CO)NC(=O)[C@H](CCCNC(=N)N)NC(=O)CCNC(=O)[C@H](CCCCN)NC(=O)[C@H](CCC(=O)O)NC(=O)CNC(=O)[C@H](CCCCN)NC(=O)[C@H](CCC(=O)O)NC(=O)[C@H](CCCCN)NC(=O)[C@H](CCC(=O)O)NC(=O)[C@H](CCCCN)NC(=O)[C@H](CCC(=O)O)NC(=O)CC[C@H](NC(=O)CCCCCCCCCCCCCCCCCCC(=O)O)C(=O)O)CSCSC[C@@H](C(=O)N2CCC[C@H]2C(=O)N[C@@H](CO)C(=O)N[C@@H](Cc2ccccc2)C(=O)N[C@@H](CCCNC(=N)N)C(=O)N[C@@H](Cc2c[nH]cn2)C(=O)NCC(=O)NCC(=O)N2CCC[C@H]2C(=O)N[C@@H](CO)C(=O)N[C@@H](CO)C(=O)NCC(=O)N[C@@H](C)C(=O)N2CCC[C@H]2C(=O)N2CCC[C@H]2C(=O)N2CCC[C@H]2C(=O)N[C@@H](CO)C(N)=O)NC(=O)CNC(=O)[C@H](CC(C)C)NC(=O)CNC(=O)[C@H](CO)NC(=O)[C@H](Cc2ccc(O)cc2)NC(=O)[C@H](Cc2c[nH]cn2)NC(=O)CNC1=O` [Example 56], for which the EC50 reads like this: under setting [2], 1.38e+06 pM; under setting [1], 11200 pM.

Consider “{C20 diacid-γGlu}-EKEKEKGEKPRSSCFG[Dap]RIDRIGHQSGLGCPSFRHGSPSSGAPPPS-NH2 (linker 14-30 via CH2) [Example 137]”, for which the EC50 is, setting by setting: under setting [3], 2.19e+06 pM; under setting [4], 76900 pM.

As for `CC[C@H](C)[C@@H]1NC(=O)[C@H](CCCNC(=N)N)NC(=O)[C@H](CC(=O)O)NC(=O)[C@H]([C@@H](C)CC)NC(=O)[C@H](CCCNC(=N)N)NC(=O)[C@H](CCCCN)NC(=O)CNC(=O)[C@H](Cc2ccccc2)NC(=O)[C@@H](NC(=O)[C@H](CO)NC(=O)[C@H](CO)NC(=O)[C@H](CCCNC(=N)N)NC(=O)CCNC(=O)[C@H](CCCCN)NC(=O)[C@H](CCC(=O)O)NC(=O)COCCOCCNC(=O)COCCOCCNC(=O)COCCOCCNC(=O)COCCOCCNC(=O)COCCOCCNC(=O)COCCOCCNC(=O)CNC(=O)[C@H](CCCCN)NC(=O)[C@H](CCC(=O)O)NC(=O)[C@H](CCCCN)NC(=O)[C@H](CCC(=O)O)NC(=O)[C@H](CCCCN)NC(=O)[C@H](CCC(=O)O)NC(=O)CC[C@H](NC(=O)CCCCCCCCCCCCCCCCCCC(=O)O)C(=O)O)CSCSC[C@@H](C(=O)N2CCC[C@H]2C(=O)N[C@@H](CO)C(=O)N[C@@H](Cc2ccccc2)C(=O)N[C@@H](CCCNC(=N)N)C(=O)N[C@@H](Cc2c[nH]cn2)C(=O)NCC(=O)NCC(=O)N[C@@H](CCCCN)C(=O)N[C@@H](CO)C(=O)N[C@@H](CO)C(=O)NCC(=O)N[C@@H](C)C(=O)N2CCC[C@H]2C(=O)N2CCC[C@H]2C(=O)N2CCC[C@H]2C(=O)N[C@@H](CO)C(N)=O)NC(=O)CNC(=O)[C@H](CC(C)C)NC(=O)CNC(=O)[C@H](CO)NC(=O)[C@H](CCC(N)=O)NC(=O)[C@H](Cc2c[nH]cn2)NC(=O)CNC1=O` [Example 89], under setting [4], the EC50 was 13800 pM.
